Assay results as given in publication PMC2746281 (PLoS ONE, 2009).

Target: T1, Tyk2 (Homo sapiens, UniProt P29597)
T1 construct: expressed in transfected cells; host or cells: Ba/F3
Experiment: Ba/F3 cell proliferation (WST-1), Tyk2
Conditions: Ba/F3 cells expressing the enzyme, read-out: Cell-based assay IC50, Tyk2

T1 sequence (P29597 whole entry, species assumed): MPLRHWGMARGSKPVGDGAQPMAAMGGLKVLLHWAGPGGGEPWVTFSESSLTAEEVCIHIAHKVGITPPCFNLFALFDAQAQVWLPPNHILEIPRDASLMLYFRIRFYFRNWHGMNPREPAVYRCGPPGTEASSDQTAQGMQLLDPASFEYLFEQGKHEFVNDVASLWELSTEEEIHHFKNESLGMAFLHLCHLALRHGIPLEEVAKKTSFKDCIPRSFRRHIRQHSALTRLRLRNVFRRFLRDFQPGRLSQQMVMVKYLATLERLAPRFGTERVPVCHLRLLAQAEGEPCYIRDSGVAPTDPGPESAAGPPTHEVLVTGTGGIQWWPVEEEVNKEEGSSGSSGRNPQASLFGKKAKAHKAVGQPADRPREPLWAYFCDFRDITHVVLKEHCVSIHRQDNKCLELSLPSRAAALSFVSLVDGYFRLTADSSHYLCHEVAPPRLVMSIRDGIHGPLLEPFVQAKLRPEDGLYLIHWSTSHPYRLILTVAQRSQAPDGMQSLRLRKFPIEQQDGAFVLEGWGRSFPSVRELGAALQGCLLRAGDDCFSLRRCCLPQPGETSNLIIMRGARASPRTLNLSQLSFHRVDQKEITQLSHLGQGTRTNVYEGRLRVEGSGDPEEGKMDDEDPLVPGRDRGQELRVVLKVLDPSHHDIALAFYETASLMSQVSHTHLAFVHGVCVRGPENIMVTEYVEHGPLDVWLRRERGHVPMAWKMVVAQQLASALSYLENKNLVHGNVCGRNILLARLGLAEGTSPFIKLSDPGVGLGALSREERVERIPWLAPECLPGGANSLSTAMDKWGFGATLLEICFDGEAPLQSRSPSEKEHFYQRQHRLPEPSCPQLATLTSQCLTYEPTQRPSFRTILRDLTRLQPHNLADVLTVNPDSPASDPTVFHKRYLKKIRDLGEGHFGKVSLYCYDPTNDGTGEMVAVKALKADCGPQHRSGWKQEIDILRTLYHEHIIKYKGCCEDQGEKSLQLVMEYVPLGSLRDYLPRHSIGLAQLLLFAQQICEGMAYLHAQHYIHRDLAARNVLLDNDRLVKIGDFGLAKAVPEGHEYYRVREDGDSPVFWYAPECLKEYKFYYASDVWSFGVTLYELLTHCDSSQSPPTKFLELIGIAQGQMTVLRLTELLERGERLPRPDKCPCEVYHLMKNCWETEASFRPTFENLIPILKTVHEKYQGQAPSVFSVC

CS(=O)(=O)O.CS(=O)(=O)O.Cc1ccc(NC(=O)c2ccc(CN3CCN(C)CC3)cc2)cc1Nc1nc(-c2cccnc2)cs1 [masitinib, 4-(4-methylpiperazin-1-ylmethyl)-N-[4-methyl-3-(4-pyridin-3ylthiazol-2-ylamino)phenyl]benzamide-mesylate methane sulfonic acid salt] was tested, and the IC50 was 9 ± 0.8 µM.
